The source of these data is ChEMBL document CHEMBL4000241, “Investigation of the anti-angiogenesis effects induced by deoxypodophyllotoxin-5-FU conjugate C069 against HUVE cells” (Bioorg Med Chem Lett, 2017).

Each structure is given as a SMILES string. The source made the active and inactive calls. No cut-off for these calls is given here.

Series [1] has as its system WI-38. In words: Antiproliferative activity against human WI38 cells at 30 uM after 12 to 48 hrs by MTT assay. Type of series: cell-based. The following applies: wi-38, 30 µM.
Series [2] deals with HUVEC. In words: Downregulation of MMP-9 expression in HUVEC at 0.2 to 0.5 uM after 24 hrs by Western blot analysis. It is filed as functional, cell-based. The following applies: Homo sapiens. In general terms: In western blotting, separated proteins are transferred to a membrane and probed.
The test system of series [3] is HUVEC. Description: Antiangiogenic activity in HUVEC assessed as inhibition of formation of tubular structures after 6 hrs by inverted phase contrast microscopy based matrigel assay. Type of series: functional, cell-based. The following applies: Homo sapiens.
Series [4] relates to HUVEC. In words: Antiproliferative activity against HUVEC at 0.1 to 0.3 uM after 6 hrs by MTT assay. Type of series: functional, cell-based. The following applies: Homo sapiens. On the technique in general: Formazan colour is commonly taken as a measure of viable cells.
The test system of series [5] is HUVEC. In words: Downregulation of MMP-2 expression in HUVEC at 0.2 to 0.5 uM after 24 hrs by Western blot analysis. It is filed as functional, cell-based. The following applies: Homo sapiens.
The next series deals with Chorioallantoic membrane. In words: Antiangiogenic activity in chicken fertilized egg chorioallantoic membrane assessed as reduction in branching of blood vessels after 48 hrs. The following applies: Gallus gallus. It is filed as functional, tissue-based.
The subject of series [6] is HUVEC. Description: Antimigratory activity in HUVEC assessed as reduction in wound-healing at 0.1 to 0.3 uM after 12 hrs by inverted phase contrast microscopy. It is filed as functional, cell-based. The following applies: Homo sapiens.
The subject of series [7] is WI-38. In words: Antiproliferative activity against human WI38 cells at 20 to 100 uM after 12 to 48 hrs by MTT assay. Type of series: cell-based. The following applies: wi-38, 100 µM.
Series [8] concerns HUVEC. Description: Vascular disrupting activity in HUVEC assessed as disruption of preformed tube like structure after 6 hrs by inverted phase contrast microscopy based matrigel assay. It is filed as functional, cell-based. The following applies: Homo sapiens.
Series [9] concerns the target T1, Catenin beta-1 (Homo sapiens) (UniProt P35222).
T1 sequence (whole entry): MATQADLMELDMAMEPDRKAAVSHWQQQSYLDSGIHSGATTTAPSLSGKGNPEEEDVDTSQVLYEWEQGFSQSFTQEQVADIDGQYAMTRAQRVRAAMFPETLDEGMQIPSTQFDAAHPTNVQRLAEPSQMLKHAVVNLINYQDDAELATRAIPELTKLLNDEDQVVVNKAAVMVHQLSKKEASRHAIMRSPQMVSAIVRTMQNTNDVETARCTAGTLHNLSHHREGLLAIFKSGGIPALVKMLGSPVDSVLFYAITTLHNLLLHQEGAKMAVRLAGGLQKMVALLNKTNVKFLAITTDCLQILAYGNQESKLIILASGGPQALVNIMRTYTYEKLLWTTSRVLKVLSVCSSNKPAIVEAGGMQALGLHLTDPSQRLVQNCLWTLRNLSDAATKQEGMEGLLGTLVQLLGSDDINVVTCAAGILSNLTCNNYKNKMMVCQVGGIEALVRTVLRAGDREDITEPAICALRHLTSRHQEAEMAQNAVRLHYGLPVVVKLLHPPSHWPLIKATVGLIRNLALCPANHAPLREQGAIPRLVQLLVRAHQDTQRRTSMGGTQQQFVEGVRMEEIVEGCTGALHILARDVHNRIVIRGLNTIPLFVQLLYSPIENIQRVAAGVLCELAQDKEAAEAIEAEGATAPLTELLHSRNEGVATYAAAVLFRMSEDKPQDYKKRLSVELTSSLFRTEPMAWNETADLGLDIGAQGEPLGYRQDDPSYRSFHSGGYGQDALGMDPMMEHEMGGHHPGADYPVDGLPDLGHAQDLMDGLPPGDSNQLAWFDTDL
In words: Inhibition of beta-catenin phosphorylation in HUVEC after 24 hrs by Western blot analysis.

The species entered for the next series is Homo sapiens. In words: Inhibition of Akt phosphorylation in HUVEC after 24 hrs by Western blot analysis.

Turning to `COc1cc([C@@H]2c3cc4c(cc3[C@@H](O[C@@H]3O[C@@H]5CO[C@@H](C)O[C@H]5[C@H](O)[C@H]3O)[C@H]3COC(=O)[C@H]23)OCO4)cc(OC)c1O` [ETOPOSIDE], in the series on WI-38 [1], the Activity result was “Non-Toxic”.
With `COc1cc([C@@H]2c3cc4c(cc3C[C@H]3COC(=O)[C@@H]32)OCO4)cc(OC)c1OC(=O)CCC(=O)NCCCCCCNC(=O)Cn1cc(F)c(=O)[nH]c1=O`, the outcome in the series with HUVEC [2], in the series with HUVEC [4], in the series with HUVEC [5] and in the series with HUVEC [6] was Active. Further, the Activity entry with HUVEC [3] is “Dose-dependent effect”; in the series on Chorioallantoic membrane it was “Dose-dependent effect”; in the series on WI-38 [7], “Non-Toxic”; in the series with HUVEC [8], “Dose-dependent effect”. The inhibition entry (in series [9]; in the series filed under Homo sapiens) was “Dose-dependent effect” each time.
